Where two headings read alike, the source gives them in different places.
Experiments:
[1] = biological target: NEK7 (Homo sapiens (Human), UniProt Q8TDX7+Q96SW2); test: NEK7 NanoBiT degradation assay in Cal51 NEK7 NanoBiT cell line; type: cell-based; conditions: Cal51 NEK7 NanoBiT cells, 24 hours; for Dmax: CAL-51
In short: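 Cal51 cells with CRISPR knock-in HiBiT-tagged endogenous NEK7 plus stable LgBiT, in live-cell Endurazine medium, seeded 16 h before dosing. Compounds at final 1 μM to 0.05 nM for 24 h at 37 °C, then luminescence read. Response normalized to plate controls and fitted with a 4-parameter logistic giving EC50.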

[2] = biological target: CRBN-DDB1 (Homo sapiens (Human), UniProt Q96SW2); test: Compound binding to CRBN by HTRF assay
Sequence of CRBN-DDB1 (Q96SW2 whole entry): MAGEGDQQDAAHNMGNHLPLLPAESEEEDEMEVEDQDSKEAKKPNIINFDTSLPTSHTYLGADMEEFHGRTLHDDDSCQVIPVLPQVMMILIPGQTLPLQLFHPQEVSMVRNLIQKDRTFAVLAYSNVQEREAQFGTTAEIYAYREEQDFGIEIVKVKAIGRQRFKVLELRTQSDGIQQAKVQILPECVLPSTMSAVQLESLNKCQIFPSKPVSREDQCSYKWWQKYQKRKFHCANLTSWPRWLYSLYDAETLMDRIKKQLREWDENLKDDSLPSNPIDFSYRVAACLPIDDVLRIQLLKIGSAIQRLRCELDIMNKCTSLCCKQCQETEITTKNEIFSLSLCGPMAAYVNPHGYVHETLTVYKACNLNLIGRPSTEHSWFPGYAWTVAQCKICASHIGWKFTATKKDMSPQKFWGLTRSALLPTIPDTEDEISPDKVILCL
Sequence of CRBN-DDB1 (Q16531 whole entry partner): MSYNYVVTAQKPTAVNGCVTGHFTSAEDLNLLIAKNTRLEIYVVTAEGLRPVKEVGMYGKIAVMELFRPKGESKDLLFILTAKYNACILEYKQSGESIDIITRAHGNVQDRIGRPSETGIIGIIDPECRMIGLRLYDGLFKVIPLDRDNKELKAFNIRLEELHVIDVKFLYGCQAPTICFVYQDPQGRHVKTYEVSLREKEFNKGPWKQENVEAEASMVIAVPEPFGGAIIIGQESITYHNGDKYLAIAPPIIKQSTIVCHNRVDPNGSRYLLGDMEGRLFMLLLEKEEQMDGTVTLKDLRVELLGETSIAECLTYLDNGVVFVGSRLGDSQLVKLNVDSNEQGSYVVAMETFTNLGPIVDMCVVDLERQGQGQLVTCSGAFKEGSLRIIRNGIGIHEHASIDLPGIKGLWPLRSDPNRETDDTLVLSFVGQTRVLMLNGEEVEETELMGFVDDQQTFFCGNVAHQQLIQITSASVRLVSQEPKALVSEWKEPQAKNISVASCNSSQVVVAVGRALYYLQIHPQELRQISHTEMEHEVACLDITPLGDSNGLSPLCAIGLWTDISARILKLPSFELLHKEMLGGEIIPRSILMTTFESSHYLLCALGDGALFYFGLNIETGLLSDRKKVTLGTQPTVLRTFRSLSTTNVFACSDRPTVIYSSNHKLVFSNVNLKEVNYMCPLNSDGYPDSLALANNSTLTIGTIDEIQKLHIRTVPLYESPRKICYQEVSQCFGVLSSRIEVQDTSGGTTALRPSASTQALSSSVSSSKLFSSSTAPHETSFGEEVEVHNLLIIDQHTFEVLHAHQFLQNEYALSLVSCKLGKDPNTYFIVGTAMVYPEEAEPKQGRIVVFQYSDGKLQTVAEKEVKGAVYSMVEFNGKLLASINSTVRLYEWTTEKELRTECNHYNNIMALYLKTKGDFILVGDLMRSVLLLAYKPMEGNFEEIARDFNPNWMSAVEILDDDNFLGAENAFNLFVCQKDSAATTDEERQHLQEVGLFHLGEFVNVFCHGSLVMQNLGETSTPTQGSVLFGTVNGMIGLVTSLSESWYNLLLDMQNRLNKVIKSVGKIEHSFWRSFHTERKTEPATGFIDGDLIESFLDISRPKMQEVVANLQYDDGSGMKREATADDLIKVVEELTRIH
In short: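 HTRF displacement of Cy5-thalidomide probe (100 nM) from His-tagged CRBN-DDB1 (2.5 nM) with anti-His terbium cryptate, in HEPES/NaCl/TCEP/EDTA/Tween20 buffer; 11-point 1:3 dilution series, 30 min at ambient temperature. Signal (665/620 nm) normalized to lenalidomide and DMSO controls; EC50 fitted, Ki by Cheng-Prusoff from geometric mean EC50.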

[3] = NEK7 degradation, read-out: NanoBiT Dmax
[4] = NEK7 degradation, read-out: NanoBiT DC50

Sequence of NEK7 (Q8TDX7 whole entry): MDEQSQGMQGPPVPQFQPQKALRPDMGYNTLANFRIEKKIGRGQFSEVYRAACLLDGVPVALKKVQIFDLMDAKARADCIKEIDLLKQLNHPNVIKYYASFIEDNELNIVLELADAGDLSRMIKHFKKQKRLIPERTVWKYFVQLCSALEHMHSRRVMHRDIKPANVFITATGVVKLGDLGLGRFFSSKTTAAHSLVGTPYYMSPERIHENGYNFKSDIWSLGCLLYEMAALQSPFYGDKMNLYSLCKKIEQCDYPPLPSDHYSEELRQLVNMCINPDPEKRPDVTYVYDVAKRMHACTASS
Sequence of NEK7 (Q96SW2 whole entry): as the sequence (Q96SW2 whole entry) above
Sequence of NEK7 (Q16531 2-1140 partner): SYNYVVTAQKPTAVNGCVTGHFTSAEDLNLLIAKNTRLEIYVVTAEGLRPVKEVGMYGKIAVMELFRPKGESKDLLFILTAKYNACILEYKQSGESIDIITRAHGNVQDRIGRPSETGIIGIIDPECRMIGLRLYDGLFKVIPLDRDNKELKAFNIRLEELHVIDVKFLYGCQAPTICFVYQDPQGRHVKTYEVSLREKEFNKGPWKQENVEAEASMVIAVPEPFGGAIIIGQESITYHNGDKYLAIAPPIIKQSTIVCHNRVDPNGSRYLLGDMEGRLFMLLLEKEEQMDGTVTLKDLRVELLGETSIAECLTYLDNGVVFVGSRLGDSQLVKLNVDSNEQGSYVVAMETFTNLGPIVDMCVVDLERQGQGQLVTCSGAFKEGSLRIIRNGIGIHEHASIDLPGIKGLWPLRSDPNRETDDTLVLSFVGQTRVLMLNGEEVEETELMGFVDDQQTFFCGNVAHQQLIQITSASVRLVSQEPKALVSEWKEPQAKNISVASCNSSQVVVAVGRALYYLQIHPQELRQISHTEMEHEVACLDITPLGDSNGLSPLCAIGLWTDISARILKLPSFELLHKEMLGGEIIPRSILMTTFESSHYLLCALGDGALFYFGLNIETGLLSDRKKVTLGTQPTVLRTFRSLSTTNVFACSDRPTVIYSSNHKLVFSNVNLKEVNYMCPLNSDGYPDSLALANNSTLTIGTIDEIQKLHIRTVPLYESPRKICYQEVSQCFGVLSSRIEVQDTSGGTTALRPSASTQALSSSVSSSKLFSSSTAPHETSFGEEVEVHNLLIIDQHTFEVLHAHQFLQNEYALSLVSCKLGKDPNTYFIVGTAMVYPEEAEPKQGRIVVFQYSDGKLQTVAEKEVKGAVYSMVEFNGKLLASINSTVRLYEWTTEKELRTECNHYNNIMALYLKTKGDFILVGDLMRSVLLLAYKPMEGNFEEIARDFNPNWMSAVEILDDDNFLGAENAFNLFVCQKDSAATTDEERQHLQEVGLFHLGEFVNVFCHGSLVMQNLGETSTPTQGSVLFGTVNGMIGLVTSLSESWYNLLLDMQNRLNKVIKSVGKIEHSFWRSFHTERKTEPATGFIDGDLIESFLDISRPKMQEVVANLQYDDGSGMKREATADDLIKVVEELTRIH

Structure (SMILES)	Dmax ([1]; read-out: NEK7 NanoBiT Dmax)	Dmax [1, 3]	DC50 ([1]; read-out: NEK7 NanoBiT DC50)	DC50 [1, 4]	EC50 [2]	EC50 ([2]; HTRF class, Cereblon binding)
O=C1CCC(c2c(Cl)cc(CNC(=O)C3(c4ccc(F)cc4)CCOC3)cc2Cl)C(=O)N1 (stereo not drawn) [Compound 141]	91%	> 75%	6 nM	≤ 100 nM	20 nM	≤ 100 nM
CC(C)(C(=O)NCc1cc(Cl)c(C2CCC(=O)NC2=O)c(Cl)c1)c1nccc(C(F)F)n1 (stereo not drawn) [Compound 182]	72%	50 to 75%	54 nM	≤ 100 nM	200 nM	100 to 1000 nM
O=C1CCC(c2ccc(CNC(=O)C3(c4ccc(F)cc4)CCOCC3)cc2Cl)C(=O)N1 (stereo not drawn) [Compound 138]	88%	> 75%	26 nM	≤ 100 nM	180 nM	100 to 1000 nM
COCCc1cnc(C(C)(C)C(=O)NCc2cc(Cl)c(C3CCC(=O)NC3=O)c(Cl)c2)nc1 (stereo not drawn) [Compound 245, N-(3,5-dichloro-4-(2,6-dioxopiperidin-3-yl)benzyl)-2-(5-(2-methoxyethyl)pyrimidin-2-yl)-2-methylpropanamide]	48%	≤ 50%	672 nM	100 to 1000 nM	160 nM	100 to 1000 nM
CC(C)(C(=O)NCc1cc(Cl)c(C2CCC(=O)NC2=O)c(Cl)c1)C1CCCC1 (stereo not drawn) [Compound 213]	78%	> 75%	33 nM	≤ 100 nM	80 nM	≤ 100 nM
CC(C)(C(=O)NCc1cc(F)c(C2CCC(=O)NC2=O)c(Cl)c1)c1ccc(OC(F)(F)F)nn1 (stereo not drawn) [Compound 272]	57%	50 to 75%	312 nM	100 to 1000 nM	230 nM	100 to 1000 nM
COc1ccc(C(C)(C)C(=O)NCc2cc(F)c(C3CCC(=O)NC3=O)c(Cl)c2)nc1 (stereo not drawn) [Compound 261]	87%	> 75%	12 nM	≤ 100 nM	90 nM	≤ 100 nM
CC(C)(C(=O)NCc1cc(Cl)c(C2CCC(=O)NC2=O)c(Cl)c1)c1ncc(C(F)(F)F)cn1 (stereo not drawn) [Compound 175]	94%	> 75%	6 nM	≤ 100 nM	280 nM	100 to 1000 nM
Cc1cc(C(C)(C)C(=O)NCc2cc(Cl)c(C3CCC(=O)NC3=O)c(Cl)c2)ncn1 (stereo not drawn) [Compound 173]	85%	> 75%	19 nM	≤ 100 nM	230 nM	100 to 1000 nM
O=C1CCC(c2c(Cl)cc(CNC(=O)C3(c4ccc5cn[nH]c5c4)CCOCC3)cc2Cl)C(=O)N1 (stereo not drawn) [Compound 131, N-(3,5-dichloro-4-(2,6-dioxopiperidin-3-yl)benzyl)-4-(1H-indazol-6-yl)tetrahydro-2H-pyran-4-carboxamide]	96%	> 75%	1 nM	≤ 100 nM	20 nM	≤ 100 nM
Cc1conc1C(C)(C)C(=O)NCc1cc(Cl)c(C2CCC(=O)NC2=O)c(Cl)c1 (stereo not drawn) [Compound 201]	93%	> 75%	7 nM	≤ 100 nM	140 nM	100 to 1000 nM
CC(C)(C(=O)NCc1cc(Cl)c([C@@H]2CCC(=O)NC2=O)c(Cl)c1)c1ncccn1 (single isomer, unassigned) [Compound 179]	59%	50 to 75%	578 nM	100 to 1000 nM	4170 nM	> 1000 nM
CCOc1cnc(C(C)(C)C(=O)NCc2cc(Cl)c(C3CCC(=O)NC3=O)c(Cl)c2)cn1 (stereo not drawn) [Compound 234, N-(3,5-dichloro-4-(2,6-dioxopiperidin-3-yl)benzyl)-2-(5-ethoxypyrazin-2-yl)-2-methylpropanamide]	97%	> 75%	1 nM	≤ 100 nM	70 nM	≤ 100 nM
CC(C)(C(=O)NCc1cc(Cl)c(C2CCC(=O)NC2=O)c(Cl)c1)c1cccc(C#N)c1 (stereo not drawn) [Compound 21, 2-(3-cyanophenyl)-N-(3,5-dichloro-4-(2,6-dioxopiperidin-3-yl)benzyl)-2-methylpropanamide]	94%	> 75%	3 nM	≤ 100 nM	90 nM	≤ 100 nM
CC(C)(C(=O)NCc1cc(Cl)c(C2CCC(=O)NC2=O)c(Cl)c1)c1ccc2[nH]ncc2c1 (stereo not drawn) [Compound 70]	97%	> 75%	0.5 nM	≤ 100 nM	60 nM	≤ 100 nM
CC(C)(O)c1cnc(C(C)(C)C(=O)NCc2cc(Cl)c(C3CCC(=O)NC3=O)c(Cl)c2)cn1 (stereo not drawn) [Compound 238, N-(3,5-dichloro-4-(2,6-dioxopiperidin-3-yl)benzyl)-2-(5-(2-hydroxypropan-2-yl)pyrazin-2-yl)-2-methylpropanamide]	63%	50 to 75%	153 nM	100 to 1000 nM	170 nM	100 to 1000 nM
Cc1ccc(C(C)(C)C(=O)NCc2cc(Cl)c(C3CCC(=O)NC3=O)c(Cl)c2)cn1 (stereo not drawn) [Compound 205]	97%	> 75%	1 nM	≤ 100 nM	110 nM	100 to 1000 nM
CC(C)(C(=O)NCc1cc(Cl)c(C2CCC(=O)NC2=O)c(Cl)c1)c1ccc2ncoc2c1 (stereo not drawn) [Compound 10, 2-(benzo[d]oxazol-6-yl)-N-(3,5-dichloro-4-(2,6-dioxopiperidin-3-yl)benzyl)-2-methylpropanamide]	97%	> 75%	1 nM	≤ 100 nM	60 nM	≤ 100 nM
CC(C)(C(=O)NCc1cc(F)c(C2CCC(=O)NC2=O)c(Cl)c1)c1ccc(OC(F)F)nc1 (stereo not drawn) [Compound 267]	94%	> 75%	3 nM	≤ 100 nM	110 nM	100 to 1000 nM
CC(C)(C(=O)NCc1cc(Cl)c(C2CCC(=O)NC2=O)c(Cl)c1)c1cccc(C(N)=O)c1 (stereo not drawn) [Compound 65]	98%	> 75%	1 nM	≤ 100 nM	140 nM	100 to 1000 nM
CNS(=O)(=O)c1ccc(C(C)(C)C(=O)NCc2cc(Cl)c(C3CCC(=O)NC3=O)c(Cl)c2)cc1 (stereo not drawn) [Compound 61]	97%	> 75%	2 nM	≤ 100 nM	60 nM	≤ 100 nM
CC(C)(C(=O)NCc1cc(Cl)c(C2CCC(=O)NC2=O)c(Cl)c1)c1nocc1C1CC1 (stereo not drawn) [Compound 198]	83%	> 75%	22 nM	≤ 100 nM	130 nM	100 to 1000 nM
O=C1CCC(c2c(Cl)cc(CNC(=O)C3(c4ccncc4)CCC3)cc2Cl)C(=O)N1 (stereo not drawn) [Compound 144]	78%	> 75%	6 nM	≤ 100 nM	50 nM	≤ 100 nM
Cc1cnc(C(C)(C)C(=O)NCc2cc(Cl)c([C@@]3(F)CCC(=O)NC3=O)c(Cl)c2)nc1 (single isomer, unassigned) [Compound 244]	19%	≤ 50%	1000 nM	> 1000 nM	220 nM	100 to 1000 nM
CC(C)(C(=O)NCc1ccc(C2CCC(=O)NC2=O)c(Cl)c1)c1cccc(F)c1 (stereo not drawn) [Compound 25, N-(3-chloro-4-(2,6-dioxopiperidin-3-yl)benzyl)-2-(3-fluorophenyl)-2-methylpropanamide]	87%	> 75%	23 nM	≤ 100 nM	290 nM	100 to 1000 nM
CC(C)(C(=O)NCc1cc(Cl)c(C2CCC(=O)NC2=O)c(Cl)c1)c1ccc(C(F)F)nn1 (stereo not drawn) [Compound 6, N-(3,5-dichloro-4-(2,6-dioxopiperidin-3-yl)benzyl)-2-(6-(difluoromethyl)pyridazin-3-yl)-2-methylpropanamide]	91%	> 75%	7 nM	≤ 100 nM	210 nM	100 to 1000 nM
CC(C)(C(=O)NCc1ccc(C2CCC(=O)NC2=O)c(Cl)c1)c1ccccc1 (stereo not drawn) [Compound 103]	89%	> 75%	20 nM	≤ 100 nM	180 nM	100 to 1000 nM
Cn1cccc(C(C)(C)C(=O)NCc2cc(Cl)c(C3CCC(=O)NC3=O)c(Cl)c2)c1=O (stereo not drawn) [Compound 148, N-(3,5-dichloro-4-(2,6-dioxopiperidin-3-yl)benzyl)-2-methyl-2-(1-methyl-2-oxo-1,2-dihydropyridin-3-yl)propanamide]	58%	50 to 75%	176 nM	100 to 1000 nM	150 nM	100 to 1000 nM
Cc1cnc(C(C)(C)C(=O)NCc2cc(C)c(C3CCC(=O)NC3=O)c(Cl)c2)nc1 (stereo not drawn) [Compound 271]	68%	50 to 75%	213 nM	100 to 1000 nM	520 nM	100 to 1000 nM
CC(C)(C(=O)NCc1cc(Cl)c(C2CCC(=O)NC2=O)c(Cl)c1)c1ccn2nccc2c1 (stereo not drawn) [Compound 82]	96%	> 75%	1 nM	≤ 100 nM	90 nM	≤ 100 nM
